From US8883964B2, “Compositions comprising modified collagen and uses therefor” (The Johns Hopkins University, priority 2004, dated 2014)
Blank lines part the entries; values can stand above or below the compound they belong to.

Key:
[1] = Circular dichroism thermal melting (triple helix transition temperature); assay type: physicochemical; settings: for Tm (transition temperature determined by circular dichroism spectroscopy): measured in 57.5 μM acetic acid solution
Method: Circular dichroism (CD) spectra were recorded on JASCO 710 spectrometer equipped with JASCO PTC-348 WI temperature controller and Hellma cell (400 μL, 0.1 mm pathlength). The thermal melting curves were obtained by measuring the molar ellipticity at 225 nm with 1° C./min heating rate. All samples (57 μM in 50 mM acetic acid) were stored at 4° C. for 24 hours before the CD measurement.
The thermal melting curves were obtained by measuring the ellipticity of peptide in deionized (DI) water (0.5˜2 mM) at 225 nm with 0.1° C./min heating rate. All samples were stored at 4° C. for 24 hours before the measurement. (FIG. 15)
Triple-helical conformation of the CMP was confirmed by circular dichroism (CD) spectroscopy. Peptide samples (250 or 500 μM) were prepared in distilled water and incubated at 4° C. overnight before the CD measurement. CD was recorded between 180 and 280 nm on a JASCO'710 CD spectrometer at various temperatures under a nitrogen flow. Each measurement had static equilibrium time of 30 minutes.

[2] = target: T1, collagen films (type I, bovine) (Bos taurus, UniProt P02453+P02465); assay: CMP-collagen film affinity study (fluorescence intensity of treated films); assay type: binding; settings: for affinity toward collagen film (fluorescence intensity): solution pre-equilibrated at 25° C. or 80° C., both conditions, 3 h at room temperature
T1 construct: natural collagen (acid soluble, bovine type I); purchased Sigma
T1 sequence (P02453 162-1217 limits assumed): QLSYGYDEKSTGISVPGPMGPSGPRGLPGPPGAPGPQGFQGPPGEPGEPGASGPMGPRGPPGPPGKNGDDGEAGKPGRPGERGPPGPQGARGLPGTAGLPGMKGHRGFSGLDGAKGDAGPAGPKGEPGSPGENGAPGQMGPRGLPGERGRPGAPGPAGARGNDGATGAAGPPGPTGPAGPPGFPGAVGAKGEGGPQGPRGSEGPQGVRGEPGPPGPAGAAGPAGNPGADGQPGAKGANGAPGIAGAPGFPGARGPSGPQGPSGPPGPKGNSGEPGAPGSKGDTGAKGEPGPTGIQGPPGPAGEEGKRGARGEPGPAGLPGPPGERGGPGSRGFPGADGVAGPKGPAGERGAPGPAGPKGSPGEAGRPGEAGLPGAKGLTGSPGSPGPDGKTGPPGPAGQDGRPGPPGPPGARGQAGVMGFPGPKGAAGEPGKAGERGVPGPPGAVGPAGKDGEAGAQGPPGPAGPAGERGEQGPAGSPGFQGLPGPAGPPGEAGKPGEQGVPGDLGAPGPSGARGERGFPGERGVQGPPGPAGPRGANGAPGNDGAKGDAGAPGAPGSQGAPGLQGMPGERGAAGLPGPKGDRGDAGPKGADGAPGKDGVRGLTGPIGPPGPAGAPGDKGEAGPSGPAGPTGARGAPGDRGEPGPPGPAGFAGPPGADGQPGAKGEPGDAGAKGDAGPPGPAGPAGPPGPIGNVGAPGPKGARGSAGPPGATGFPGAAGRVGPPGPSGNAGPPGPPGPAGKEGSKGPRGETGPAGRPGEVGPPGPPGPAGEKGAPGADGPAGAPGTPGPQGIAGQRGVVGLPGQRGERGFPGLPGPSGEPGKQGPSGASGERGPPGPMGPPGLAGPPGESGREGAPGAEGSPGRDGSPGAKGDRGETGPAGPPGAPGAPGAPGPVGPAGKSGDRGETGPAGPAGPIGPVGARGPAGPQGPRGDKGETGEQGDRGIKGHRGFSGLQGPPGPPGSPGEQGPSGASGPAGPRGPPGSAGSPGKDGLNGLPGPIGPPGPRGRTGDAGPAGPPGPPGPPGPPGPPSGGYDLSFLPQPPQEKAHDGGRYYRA
T1 sequence (P02465 80-1117 limits assumed): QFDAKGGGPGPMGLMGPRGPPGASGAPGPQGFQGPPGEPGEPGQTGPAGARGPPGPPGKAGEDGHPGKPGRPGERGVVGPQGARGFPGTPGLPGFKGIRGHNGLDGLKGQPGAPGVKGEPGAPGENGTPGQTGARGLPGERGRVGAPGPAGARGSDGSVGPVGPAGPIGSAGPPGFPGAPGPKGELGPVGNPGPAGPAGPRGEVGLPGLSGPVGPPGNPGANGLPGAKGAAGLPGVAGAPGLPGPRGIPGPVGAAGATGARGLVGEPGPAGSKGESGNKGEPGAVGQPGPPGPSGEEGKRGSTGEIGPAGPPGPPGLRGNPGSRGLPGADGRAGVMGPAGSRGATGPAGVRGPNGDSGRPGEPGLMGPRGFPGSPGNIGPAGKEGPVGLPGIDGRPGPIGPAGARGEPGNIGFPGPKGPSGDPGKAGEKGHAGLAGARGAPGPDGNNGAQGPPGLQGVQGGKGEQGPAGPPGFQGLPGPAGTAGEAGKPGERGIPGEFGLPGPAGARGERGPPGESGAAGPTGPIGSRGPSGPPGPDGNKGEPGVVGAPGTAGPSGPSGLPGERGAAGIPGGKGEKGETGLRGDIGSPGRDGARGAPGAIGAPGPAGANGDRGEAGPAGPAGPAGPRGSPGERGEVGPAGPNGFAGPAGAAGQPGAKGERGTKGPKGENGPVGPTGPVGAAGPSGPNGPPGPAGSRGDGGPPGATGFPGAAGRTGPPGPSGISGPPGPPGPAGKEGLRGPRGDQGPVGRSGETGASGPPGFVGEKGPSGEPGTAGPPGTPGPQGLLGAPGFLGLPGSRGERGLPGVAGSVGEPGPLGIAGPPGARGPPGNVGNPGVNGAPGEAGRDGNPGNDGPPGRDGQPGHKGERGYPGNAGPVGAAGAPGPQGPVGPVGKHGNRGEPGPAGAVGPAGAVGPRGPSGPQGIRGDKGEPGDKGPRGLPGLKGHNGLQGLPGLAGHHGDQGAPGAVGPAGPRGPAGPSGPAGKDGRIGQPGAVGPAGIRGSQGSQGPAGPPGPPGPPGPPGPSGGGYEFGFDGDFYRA
Method: The transition melting temperature of collagen film as determined by circular dichroism spectroscopy is shown at FIG. 4. To the collagen-coated cell culture wells (at room temperature) was added a solution of 2 which was pre-equilibrated at either 25° C. or 80° C. After three hours of incubation at room temperature, the collagen films were washed with buffer solution and observed by fluorescence microscope. As control samples, 5CF, fluorescein isothiocyanate-dextran (FITC-Dextran), and peptide 3 were used to treat collagen films under identical experimental conditions. […] Similar results were obtained when gelatin films were used as a substrate (FIG. 5A: Group c). In addition, the helical content of CMP treated collagen film was 3.5 times higher than that of the film treated with a blank solution (see support information).
In order to understand the effect of collagen film denaturation in the CMP binding process, a shorter CMP derivative was synthesized, peptide 4, with a melting temperature (25° C.) well below that of the collagen film. […] In addition, the modified collagen fiber retained its native banding texture when investigated by transmission electron microscopy (FIG. 6). Hotter solutions (60° C. and 80° C.) which denature the collagen film during the treatment produced collagen films with slightly higher CMP content (approximately 20% increase from that of the […] solution).
To each well of a 96-well culture plate was added 200 μl of saturated collagen (acid soluble, type I bovine) solution in 0.5 M acetic acid. The culture plate was air-dried to form transparent collagen films. The films were neutralized with 0.01 M potassium phosphate buffer (pH 7.4), and washed with distilled water. To the collagen-coated wells were added 40 μl of 0.01 M potassium phosphate solutions (pH 7.4) containing 50 μM of either CF (5-carboxyfluorescein), FITC-Dextran, and peptides 2, 3, or 4, which were pre-equilibrated at 25° C. or 80° C. After 3 hours of incubation at room temperature, the wells were washed with 0.01 M potassium phosphate buffer solution (pH 7.4) and observed by fluorescence microscope (Eclips ME 600, Nikon Corp). The total fluorescence intensity was acquired from the fluorescence micrographs using Meta Imaging Series V4.5, (Universal Imaging Corporation, Dowingtown Pa.). Average values of four independent experiments are reported.

[3] = target: T2, collagen fibers (type I) (Bos taurus, UniProt P02453+P02465); assay: TEM analysis of the modified collagen fibers; set-up: species or system bovine; settings: treatment at 30° C.
T2 construct: natural collagen (acid soluble, bovine type I); purchased Sigma
T2 sequence (P02453 162-1217 limits assumed): as the sequence (P02453 162-1217 limits assumed) above
T2 sequence (P02465 80-1117 limits assumed): as the sequence (P02465 80-1117 limits assumed) above
Method: Collagen fibers were prepared by dialysis of collagen in 0.01M acetic acid solution against dilute NaCl solution. Peptide 4 in potassium phosphate buffer (400 μl, 500 μM, pH 7.4) was added to the collagen fibers in the PBS buffer (1 ml, 1 mg/ml, pH 7.4). The mixture was incubated for 3 hours and excess peptide 4 was removed by repeated centrifugation. The collagen fibers were resuspended in deionized water and transferred to a TEM grid. Uranyl acetate was used to stain the collagen fiber. (FIG. 6)

[4] = target: T3, Collagen (type I, bovine) film (Bos taurus, UniProt P02453+P02465); assay: Helical content estimation of the modified collagen films by CD
T3 construct: natural collagen (acid soluble, bovine type I); purchased Sigma
T3 sequence (P02453 162-1217 limits assumed): as the sequence (P02453 162-1217 limits assumed) above
T3 sequence (P02465 80-1117 limits assumed): as the sequence (P02465 80-1117 limits assumed) above
Method: Collagen (type I, bovine) film was treated with either peptide 2 solution or blank buffer solution as described before. After 3 hr of incubation at room temperature, the wells were washed with 0.01 M potassium phosphate buffer solution (pH 7.4) and deionized water. All samples were dissolved in 50 mM acetic acid to a concentration of 1.80 μM or 3.60 μM and stored at 4° C. for 24 hours before the CD measurement. Average values of four independent experiments are reported (FIG. 4).

[5] = comparison value; cited from earlier work
[6] = test system: breast epithelial cells (MCF-7); assay: Cell adhesion study on treated collagen film, breast epithelial cells; assay type: cell-based, human; settings: for invasion of treated films by fibroblasts or epithelial cells: summary statement
Method: (§1) The melting temperature of 5 was determined to be 29° C. which is 7° C. lower than the melting temperature of (ProHypGly)7 (SEQ ID NO: 40) (Table 1).^27 Here, the hydrophilic and bulky PEG group seems to destabilize the triple helix in water. A solution containing 5 at 45° C. was added to the collagen coated culture plate (prepared as above) and human fibroblasts or breast epithelial cells were seeded and incubated for three days at 37° C. […] In contrast, areas of collagen films treated with 5 are almost devoid of fibroblasts (FIG. 7B) and epithelial cells (FIG. 7C).
For applications where it is desirable to repel cell growth for prolonged periods (e.g., weeks or months), it is desirable to employ CMPs of increased length. In films that were treated with mPEG2000-Gly3-(Pro-Hyp-Gly)7 (SEQ ID NO: 6), cell growth extending into the treated area was observed after 3 days in culture (FIGS. 9A, 9B, and 9C). This might be due to the release of mPEG2000-Gly3-(Pro-Hyp-Gly)7 (SEQ ID NO: 6) from the PEG-CMP modified collagen film during incubation at 37° C.
(Pro-Hyp-Gly)8-Gly3-PEG5000-OH (SEQ ID NO: 26) with lengthened CMP and PEG, was designed to prolong the anti-adhesive property of pegylated CMP modified collagen to cells. Its melting temperature is 38° C. in PBS solution. A delay in invasive cell growth was observed on areas of the collagen film treated with (Pro-Hyp-Gly)8-Gly3-PEG5000-OH (SEQ ID NO: 26) (FIGS. 10A and FIG. 10B). […] It can also be seen from the images that cells outside the treated area grow vertically before invading the treated area.
(§2) To the collagen film (prepared as above) was added 10 μl of peptide 5 solution (2 mM in pH 7.4 potassium phosphate buffer). The film was allowed to dry and excess materials were removed by washing with potassium phosphate buffer (pH 7.4, 50 mM) and culture medium (DMEM or IMDM). Cells were added to the culture well and incubated at room temperature for 30 minutes. Human fibroblasts (CRL-1502) were seeded at 4.5×10^5 cell/ml cell density in DMEM and breast epithelial cells (MCF-7) at 5.6×10^5 cells/ml density in cell culture media (IMDM). The nonattached cells were removed by rinsing the well three times with growth medium and PBS buffer. The remaining cells were incubated at 37° C. (5% CO2) for three days. The growth medium was exchanged after 48 hours.

[7] = Circular dichroism thermal melting (triple helix transition temperature); assay type: physicochemical; settings: in PBS solution
[8] = test system: Human fibroblasts (CRL-1502); assay: Cell adhesion study on treated collagen film, human fibroblasts; assay type: cell-based; settings: three days at 37° C.
Method: as §1, §2

[9] = target: T4, collagen film (Bos taurus, UniProt P02453+P02465); assay: Release of fluorescence-labeled CMP derivatives from collagen films; settings: 37° C., PBS solution pH 7.4
T4 construct: natural collagen (acid soluble, bovine type I); purchased Sigma
T4 sequence (P02453 162-1217 limits assumed): as the sequence (P02453 162-1217 limits assumed) above
T4 sequence (P02465 80-1117 limits assumed): as the sequence (P02465 80-1117 limits assumed) above
Source text: The release of fluorescence-labeled PEG-CMPs derivatives from collagen films is shown in (FIG. 11).

[10] = solution pre-equilibrated at 80° C.

Tm (transition temperature determined by circular dichroism spectroscopy) [1]: 25 °C
Tm (transition temperature determined by circular dichroism spectroscopy) ([1]; listed as peptide 4): 25 °C
increase in CMP content of collagen film from that of the 30° C. solution ([2]; hotter solutions (60° C. and 80° C.)): approximately 20%
binding to collagen film ([2]; solution at 10° C.): Little binding
increase in CMP attachment compared to the 10° C. solution ([2]; solution pre-equilibrated at 30° C.): more than three-fold increase
banding pattern of collagen fibers after treatment [3]: native banding pattern
Compound: 5CF-Gly3-(ProHypGly)6- [Compound 4]

Tm (CD melting transition temperature) ([1]; Cys-CMP derivatives, deionized water, ellipticity at 225 nm): 21 °C
Tm (transition temperature determined by circular dichroism spectroscopy) [1]: 75 °C
Tm (transition temperature determined by circular dichroism spectroscopy) ([1]; listed as peptide 2): 75 °C
fluorescence of treated collagen film ([2]; solution pre-equilibrated at 25° C.): negligible fluorescence
fluorescence of treated collagen film [2, 10]: strong fluorescence
helical content of treated collagen film relative to film treated with blank solution [4]: 3.5 times
original helical content of collagen film retained after treatment [4, 10]: 80%
Compound: 5CF-Gly3-(ProHypGly)10- [Compound 2]

affinity toward collagen film (fluorescence intensity) [2]: negligible affinity
Compound: O=C(O)c1ccc2c(c1)C(=O)OC21c2ccc(O)cc2Oc2cc(O)ccc21 [Compound 5CF, 5-carboxyfluorescein, reference compound]

Compound: (Pro-Hyp-Gly)7
melting temperature of unmodified (Pro-Hyp-Gly)7 CMP [5]: 37 °C

Compound: (Pro-Hyp-Gly)8-Gly3-PEG5000-OH
time for which the treated gel repelled extensive cell growth [6]: close to eleven days
cell invasion into treated areas of the collagen film ([6]; after eleven days in culture): Extensive invasion
cell invasion into treated areas of the collagen film ([6]; after five days in culture): little invasion
cell invasion into treated areas of the collagen film ([6]; after nine days in culture): moderate invasion
invasion of treated films by fibroblasts or epithelial cells [6]: dramatically reduced invasion
melting temperature [7]: 38 °C

CD melting temperature (midpoint of CD melting curve) ([1]; peptide in distilled water): 38.5 °C
Compound: (ProHypGly)7-Tyr

Compound: -(ProHypGly)10- [Compound 1]
Tm (transition temperature determined by circular dichroism spectroscopy) [1]: 69 °C

Compound: CH3O—(CH2—CH2—O)n—OH [mPEG2000, reference compound]
fibroblasts on treated area of collagen film [8]: Homogenous distribution of fibroblasts

release from collagen film relative to 5CF-Gly3-(Pro-Hyp-Gly)8-Gly3-PEG5000-OH [9]: faster
Compound: FL-PEG2000-Gly3-(Pro-Hyp-Gly)7

affinity toward collagen film (fluorescence intensity) [2]: negligible affinity
Compound: fluorescein isothiocyanate-dextran [FITC-Dextran, reference compound]

Compound: mPEG2000-Gly3-(ProHypGly)7- [Compound 5]
melting temperature lower than that of (ProHypGly)7 ([1]; difference): 7 °C
Tm (transition temperature determined by circular dichroism spectroscopy) [1]: 29 °C
fibroblasts on treated area of collagen film [8]: almost devoid
cell growth extending into the treated area observed after ([6]; in culture at 37° C.): 3 days
invasion of treated films by fibroblasts or epithelial cells [6]: dramatically reduced invasion
epithelial cells on treated area of collagen film ([6]; three days at 37° C.): almost devoid
